Measurements taken from patent publication US20200179341A1, “METHODS AND COMPOSITIONS FOR TREATING MULTIPLE MYELOMA AND INCREASING ANTIBODY DEPENDENT CELL CYTOTOXICITY BY TARGETING THE ARYL HYDROCARBON RECEPTOR” (priority 2016, published 2020).

Columns and labels:
MM cell targets = experiment: Antibody-mediated ADCC with AHR antagonism (cytotoxicity co-culture); format: cell-based
Experimental: A series of in vitro studies are conducted in which immune effector cells and/or MM cell targets are pre-treated with vehicle or CH233191 prior to cytotoxicity co-culture assay. Accounting for the baseline, direct effect of AHR antagonism on MM cell viability, any additive rate of target cell death in the combinatorial condition can be studied, in particular when both effectors and targets are pre-exposed to CH233191. Using validated techniques (Benson Blood 2010), the effects of CH233191 on immune effector cell expansion, expression of activating receptors, and abilities to traffic to, acquire, and lyse MM targets is studied. These experiments are conducted in the presence of therapeutic monoclonal antibodies in order to assess whether AHR antagonism may enhance ADCC-mediated immunotherapy (e.g., Elotuzumab, Daratumumab/Isatuximab/Rituximab/Milatuzumab).

MM cells = experiment: Surface expression (MFI) of MM antigens targetable by therapeutic monoclonal antibodies after AHR inhibition; format: cell-based
Experimental: AHR antagonism enhances MM expression of antigens targetable by therapeutic monoclonal antibodies. […] Accordingly, NK-cell mediated killing of MM tumor cells is tested by combining AHR antagonism of effector cells and MM targets with therapeutic monoclonal antibodies.

NK cell precursors [1] = experiment: NK cell development and function from AHR-expressing innate lymphoid cell precursors; format: cell-based; details: compared to control and AHR agonist (FICZ) treated cells; FIG. 2
MM tumor cell burden = experiment: CH233191 by oral gavage in a disseminated murine MM model
NK cell precursors [2] = details: Roeven Blood 2014; cited from earlier work

SMILES	Elotuzumab-mediated ADCC (MM cell targets; FIG. 9, with Elotuzumab)	Daratumumab-mediated ADCC (MM cell targets; FIG. 10, with Daratumumab)	MFI (CH233191), CD20 (MM cells; surface antigen CD20, antibody Rituximab, DMSO control MFI 321)	MFI (CH233191), CD38 (MM cells; surface antigen CD38, antibodies Daratumumab, Isatuximab, DMSO control MFI 2959)	MFI (CH233191), CD74 (MM cells; surface antigen CD74, antibody Milatuzumab, DMSO control MFI 761)	MFI (CH233191), SLAMF7 (CS1) (MM cells; surface antigen SLAMF7 (CS1), antibody Elotuzumab, DMSO control MFI 1946)	acquisition of cytokine production and cytotoxicity capabilities (NK cell precursors [1])	oral bioavailability (MM tumor cell burden; difficulties with solubilization in corn oil for gavage)	apparent reduction in MM tumor cell burden (MM tumor cell burden; oral gavage in corn oil, versus vehicle-treated controls)	survival outcome (MM tumor cell burden; oral gavage, disseminated murine MM model)	acquisition of NK cell function (corroboration) (NK cell precursors [2])
Cc1ccccc1N=Nc1ccc(NC(=O)c2ccnn2C)c(C)c1 [CH233191]	appears to enhance	appears to enhance	753	6110	1367	2999	rapid acquisition of cytokine production as well as cytotoxicity capabilities	questionable	2 of 5	all mice died of progressive MM	–
CC(C)n1cnc2c(NCCc3ccc(O)cc3)nc(-c3csc4ccccc34)nc21 [Stemreginin 1]	–	–	–	–	–	–	–	–	–	–	corroborated this finding
